Data published in patent US20090304692A1, “TRIAZINE COMPOUNDS AS PI3 KINASE AND MTOR INHIBITORS” (Wyeth, priority 2008, published 2009).
“And” between values parts separate entries of the source, which are not always exact repeats. Equal values may be shown once. Read-outs that look alike come from different tables or passages of the source.

How the values were obtained:
PI3K-γ = PI3K-γ (Homo sapiens, UniProt P48736); test: PI3K-gamma fluorescence polarization assay; details: read-out: IC50 PI3Kγ
[1] = tested on: human breast MDA-MB-361 tumor cell line; test: In vitro cell culture growth assay (MTS), MDA-MB-361; type: cell-based; details: Homo sapiens, three days after drug treatment, read-out: IC50 MDA-MB-361
[2] = tested on: human prostate PC3-mm2 tumor cell line; test: In vitro cell culture growth assay (MTS), PC3-mm2; type: cell-based; details: Homo sapiens, PC3MM2, 72 h, three days after drug treatment, read-out: IC50 PC3-mm2
Human mTOR (FLAG-TOR) = Human mTOR (FLAG-TOR) (Homo sapiens, UniProt P42345); test: mTOR kinase assay (DELFIA format, purified enzyme); type: biochemical; details: read-out: IC50 mTOR
PI3K-α = PI3K-α (Homo sapiens, UniProt P42336); test: PI3K-alpha fluorescence polarization assay; details: read-out: IC50 PI3Kα
[3] = MDA-MB-361, 72 h, MTS cell growth assay
[4] = 72 h, MTS cell growth assay, MDA-MB-361 cells
[5] = MTS cell growth assay, PC3-mm2 cells
[6] = MDA-MB-361, 72 h, MTS cell growth assay, MDA-MB-361 cells

Sequence of PI3K-γ (P48736 whole entry, species assumed): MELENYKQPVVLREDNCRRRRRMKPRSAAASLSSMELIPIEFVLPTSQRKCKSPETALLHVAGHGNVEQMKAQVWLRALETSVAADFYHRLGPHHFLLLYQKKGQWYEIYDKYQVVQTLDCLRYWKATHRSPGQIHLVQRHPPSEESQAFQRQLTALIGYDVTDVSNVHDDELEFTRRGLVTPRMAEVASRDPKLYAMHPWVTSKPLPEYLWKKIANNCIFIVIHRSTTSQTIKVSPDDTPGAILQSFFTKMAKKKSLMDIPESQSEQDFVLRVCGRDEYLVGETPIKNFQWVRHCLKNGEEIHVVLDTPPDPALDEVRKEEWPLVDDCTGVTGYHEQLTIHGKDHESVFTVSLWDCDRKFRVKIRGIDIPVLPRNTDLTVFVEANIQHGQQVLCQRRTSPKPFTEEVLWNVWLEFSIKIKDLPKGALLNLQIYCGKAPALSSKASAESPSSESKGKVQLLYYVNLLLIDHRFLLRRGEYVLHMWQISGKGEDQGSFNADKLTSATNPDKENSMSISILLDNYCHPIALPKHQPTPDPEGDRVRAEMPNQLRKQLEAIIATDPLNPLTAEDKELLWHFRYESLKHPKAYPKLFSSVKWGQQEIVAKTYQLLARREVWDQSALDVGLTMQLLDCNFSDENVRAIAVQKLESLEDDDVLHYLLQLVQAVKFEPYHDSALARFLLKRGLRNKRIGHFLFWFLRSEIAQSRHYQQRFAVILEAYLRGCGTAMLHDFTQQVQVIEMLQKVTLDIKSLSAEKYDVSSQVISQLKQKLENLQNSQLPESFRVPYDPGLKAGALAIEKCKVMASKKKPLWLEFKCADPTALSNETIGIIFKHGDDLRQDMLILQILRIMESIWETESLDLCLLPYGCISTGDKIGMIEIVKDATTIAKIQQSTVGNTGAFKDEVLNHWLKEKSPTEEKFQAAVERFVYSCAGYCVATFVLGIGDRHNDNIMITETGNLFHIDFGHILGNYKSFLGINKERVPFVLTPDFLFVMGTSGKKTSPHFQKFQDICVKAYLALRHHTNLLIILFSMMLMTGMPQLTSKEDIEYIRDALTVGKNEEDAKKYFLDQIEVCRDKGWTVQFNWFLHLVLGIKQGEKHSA
Sequence of PI3K-α (P42336 whole entry, species assumed): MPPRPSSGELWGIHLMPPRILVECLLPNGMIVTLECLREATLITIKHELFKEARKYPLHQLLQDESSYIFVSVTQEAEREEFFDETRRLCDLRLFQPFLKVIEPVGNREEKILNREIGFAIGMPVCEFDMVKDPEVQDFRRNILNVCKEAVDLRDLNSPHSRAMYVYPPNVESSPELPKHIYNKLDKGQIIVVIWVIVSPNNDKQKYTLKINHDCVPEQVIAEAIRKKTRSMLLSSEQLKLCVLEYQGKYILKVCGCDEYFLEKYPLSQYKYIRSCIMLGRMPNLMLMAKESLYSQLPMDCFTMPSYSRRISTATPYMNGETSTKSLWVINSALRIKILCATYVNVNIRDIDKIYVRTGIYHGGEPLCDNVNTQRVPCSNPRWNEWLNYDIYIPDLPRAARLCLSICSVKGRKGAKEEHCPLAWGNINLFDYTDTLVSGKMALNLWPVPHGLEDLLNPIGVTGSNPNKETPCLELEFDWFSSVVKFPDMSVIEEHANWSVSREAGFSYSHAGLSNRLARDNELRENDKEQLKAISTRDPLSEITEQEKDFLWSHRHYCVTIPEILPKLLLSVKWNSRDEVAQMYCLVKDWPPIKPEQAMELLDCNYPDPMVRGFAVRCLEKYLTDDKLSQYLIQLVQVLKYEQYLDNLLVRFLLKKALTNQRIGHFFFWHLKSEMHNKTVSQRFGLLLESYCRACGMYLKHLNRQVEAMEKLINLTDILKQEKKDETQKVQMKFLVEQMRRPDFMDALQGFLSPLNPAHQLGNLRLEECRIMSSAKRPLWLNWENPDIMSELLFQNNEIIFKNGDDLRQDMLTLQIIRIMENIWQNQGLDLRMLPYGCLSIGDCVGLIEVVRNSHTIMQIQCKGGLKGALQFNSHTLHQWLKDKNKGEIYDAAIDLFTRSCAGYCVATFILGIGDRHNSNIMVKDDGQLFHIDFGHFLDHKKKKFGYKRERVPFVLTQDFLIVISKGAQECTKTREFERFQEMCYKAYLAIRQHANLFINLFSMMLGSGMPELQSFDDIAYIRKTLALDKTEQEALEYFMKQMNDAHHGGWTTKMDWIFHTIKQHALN
Sequence of PI3K-α (P27986 whole entry partner, species assumed): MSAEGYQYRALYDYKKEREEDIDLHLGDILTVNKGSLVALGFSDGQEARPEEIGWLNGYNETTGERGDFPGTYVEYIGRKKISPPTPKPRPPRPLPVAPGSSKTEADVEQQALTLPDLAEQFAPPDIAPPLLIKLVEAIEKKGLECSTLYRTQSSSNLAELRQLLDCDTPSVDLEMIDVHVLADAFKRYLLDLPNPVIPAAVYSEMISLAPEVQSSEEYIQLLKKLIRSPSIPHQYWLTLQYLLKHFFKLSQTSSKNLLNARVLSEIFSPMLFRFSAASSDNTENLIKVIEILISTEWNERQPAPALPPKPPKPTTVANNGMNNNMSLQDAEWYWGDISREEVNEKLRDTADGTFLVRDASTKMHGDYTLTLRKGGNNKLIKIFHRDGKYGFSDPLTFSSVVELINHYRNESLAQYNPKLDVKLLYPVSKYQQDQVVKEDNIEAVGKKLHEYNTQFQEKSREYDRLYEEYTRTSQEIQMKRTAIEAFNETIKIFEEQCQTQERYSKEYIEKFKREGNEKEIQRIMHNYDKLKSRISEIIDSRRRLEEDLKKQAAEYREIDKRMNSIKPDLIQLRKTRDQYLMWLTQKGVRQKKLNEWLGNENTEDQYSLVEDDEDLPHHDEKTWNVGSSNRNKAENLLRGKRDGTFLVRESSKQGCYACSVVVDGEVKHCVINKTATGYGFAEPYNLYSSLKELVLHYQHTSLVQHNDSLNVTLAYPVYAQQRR
Sequence of Human mTOR (FLAG-TOR) (P42345 1360-2549 limits assumed): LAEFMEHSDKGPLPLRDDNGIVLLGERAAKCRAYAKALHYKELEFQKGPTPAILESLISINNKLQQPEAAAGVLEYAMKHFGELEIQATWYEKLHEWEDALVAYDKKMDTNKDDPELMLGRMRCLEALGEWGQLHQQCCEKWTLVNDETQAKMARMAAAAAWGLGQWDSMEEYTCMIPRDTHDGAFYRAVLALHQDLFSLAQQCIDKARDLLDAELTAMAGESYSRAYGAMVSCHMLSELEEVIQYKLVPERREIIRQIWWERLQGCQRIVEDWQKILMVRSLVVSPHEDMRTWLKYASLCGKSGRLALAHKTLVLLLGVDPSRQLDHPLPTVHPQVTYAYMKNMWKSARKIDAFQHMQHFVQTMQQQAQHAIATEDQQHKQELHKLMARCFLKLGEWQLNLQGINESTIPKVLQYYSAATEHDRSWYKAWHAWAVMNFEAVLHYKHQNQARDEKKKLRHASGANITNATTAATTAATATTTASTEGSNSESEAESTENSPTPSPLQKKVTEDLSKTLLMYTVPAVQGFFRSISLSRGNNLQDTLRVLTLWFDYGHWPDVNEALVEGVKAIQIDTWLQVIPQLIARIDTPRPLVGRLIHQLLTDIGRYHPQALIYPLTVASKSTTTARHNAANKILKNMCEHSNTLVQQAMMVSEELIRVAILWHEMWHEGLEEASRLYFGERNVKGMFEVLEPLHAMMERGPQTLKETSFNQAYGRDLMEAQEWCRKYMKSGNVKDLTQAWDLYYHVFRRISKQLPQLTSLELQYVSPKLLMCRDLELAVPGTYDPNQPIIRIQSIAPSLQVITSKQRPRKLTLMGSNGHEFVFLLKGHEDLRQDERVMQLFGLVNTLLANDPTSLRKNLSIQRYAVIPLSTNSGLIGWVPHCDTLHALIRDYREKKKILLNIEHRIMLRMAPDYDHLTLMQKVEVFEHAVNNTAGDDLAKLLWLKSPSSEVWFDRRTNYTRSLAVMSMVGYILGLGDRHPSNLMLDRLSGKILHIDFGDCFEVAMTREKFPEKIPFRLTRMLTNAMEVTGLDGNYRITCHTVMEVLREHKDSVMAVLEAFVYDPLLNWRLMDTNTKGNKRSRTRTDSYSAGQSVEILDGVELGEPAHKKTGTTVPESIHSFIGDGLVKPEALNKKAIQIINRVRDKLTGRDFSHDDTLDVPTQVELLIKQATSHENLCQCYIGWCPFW

Row | SMILES | IC50 (PI3K-γ) [nM] | IC50 [1, 3] [nM] | IC50 ([2]; MTS cell growth assay) [nM] | IC50 (Human mTOR (FLAG-TOR)) | IC50 (PI3K-α) [nM] | IC50 [1, 4] [nM] | IC50 [2, 5] [nM] | IC50 [1, 6] [nM] | IC50 (PI3K-α; listed as 527) [nM] | IC50 ([1]; 72 h, MDA-MB-361 cells, MTS) [nM] | IC50 ([2]; PC3-mm2 cells, MTS) [nM] | IC50 (PI3K-γ; listed as 669) [nM] | IC50 (PI3K-α; listed as 669) [nM]
1 | CC(C)c1nc(-c2ccc(NC(=O)Nc3ccc(C(=O)NC4CCC4)cc3)cc2)nc(N2CCOCC2)n1 [Example 311, N-cyclobutyl-4-[({4-[4-(1-methylethyl)-6-morpholin-4-yl-1,3,5-triazin-2-yl]phenyl}carbamoyl)amino]benzamide] | 125 | 126 | 366 | 12 nM | 40 |  |  |  |  |  |  |  | 
2 | O=C(Nc1ccc(C(=O)N2CCNCC2)cc1)Nc1ccc(-c2nc(NS(=O)(=O)c3ccccc3)nc(N3CCOCC3)n2)cc1 [Example 785, N-{4-morpholin-4-yl-6-[4-({[4-(piperazin-1-ylcarbonyl)phenyl]carbamoyl}amino)phenyl]-1,3,5-triazin-2-yl}benzenesulfonamide] | 45.5 |  |  | 55.5 nM | 6 | > 1000 | > 1000 |  |  |  |  |  | 
3 | O=C(Nc1ccc(C(=O)N2CCNCC2)cc1)Nc1ccc(-c2nc(N3CCOCC3)nc(N3CCOCC3)n2)cc1 [Example 77, 1-(4-(4,6-dimorpholino-1,3,5-triazin-2-yl)phenyl)-3-(4-(piperazine-1-carbonyl)phenyl)urea] | 4 | < 30 | < 30 | 0.68 nM | 0.3 |  |  |  |  |  |  |  | 
4 | CC(C)(C)OC(=O)N1CC(CNc2nc(-c3ccc(NC(=O)Nc4ccncc4)cc3)nc(N3CCOCC3)n2)C1 [Example 104, 3-({4-Morpholin-4-yl-6-[4-(3-pyridin-4-yl-ureido)-phenyl]-[1,3,5]triazin-2-ylamino}-methyl)-azetidine-1-carboxylic acid tert-butyl ester] | 234 | 412 | 684 | 15 nM | 19 |  |  |  |  |  |  |  | 
5 | O=C(Nc1ccc(C(=O)O)cc1)Nc1ccc(-c2nc(N3CCOCC3)nc(N3C4COCC3COC4)n2)cc1 [Example 771, 4-[({4-[4-(3,7-dioxa-9-azabicyclo[3.3.1]non-9-yl)-6-morpholin-4-yl-1,3,5-triazin-2-yl]phenyl}carbamoyl)amino]benzoic acid] | 66 |  |  | 0.215 nM | 19.5 | > 1000 | > 1000 |  |  |  |  |  | 
6 | Cc1ccc(-c2nc(-c3ccc(NC(=O)Nc4ccc(C(=O)O)cc4)cc3)nc(N3CCOCC3)n2)cc1 [Example 342, 4-[({4-[4-(4-methylphenyl)-6-morpholin-4-yl-1,3,5-triazin-2-yl]phenyl}carbamoyl)amino]benzoic acid] | 127 | 1260 | 2430 | 6.6 nM and 9.3 nM | 20 |  | 2430 | 1260 | 20.5 |  |  |  | 
7 | CN(C)CCN(C)C(=O)c1ccc(NC(=O)Nc2ccc(-c3nc(N4CCOCC4)nc(N4C5CCCC4COC5)n3)cc2)cc1 [Example 795, N-[2-(dimethylamino)ethyl]-N-methyl-4-[({4-[4-morpholin-4-yl-6-(3-oxa-9-azabicyclo[3.3.1]non-9-yl)-1,3,5-triazin-2-yl]phenyl}carbamoyl)amino]benzamide] | 26.5 |  |  | 0.425 nM | 2.7 |  |  |  |  | < 3.2 | 10 |  | 
8 | O=C(Nc1ccc(C(=O)O)cc1)Nc1ccc(-c2nc(N3CCCCC3)nc(N3CCOCC3)n2)cc1 [Example 593, 4-({[4-(4-morpholin-4-yl-6-piperidin-1-yl-1,3,5-triazin-2-yl)phenyl]carbamoyl}amino)benzoic acid] | 143 |  |  | 12 nM | 40 |  | > 1000 | > 1000 |  |  |  |  | 
9 | CC(C)CN1CCN(C(=O)c2ccc(NC(=O)Nc3ccc(-c4nc(N5CCOC[C@@H]5C)nc(N5CCOC[C@@H]5C)n4)cc3)cc2)CC1 [Example 631, 1-(4-{4,6-bis[(3S)-3-methylmorpholin-4-yl]-1,3,5-triazin-2-yl}phenyl)-3-(4-{[4-(2-methylpropyl)piperazin-1-yl]carbonyl}phenyl)urea] | 133 |  |  | 4 nM | 28 | 28 | 120 |  |  |  |  |  | 
10 | O=C(Nc1ccncc1)Nc1ccc(-c2nc(N3CCOCC3)nc(N3C4CCC3COC4)n2)cc1 [Example 34, 1-{4-[4-morpholin-4-yl-6-(3-oxa-8-azabicyclo[3.2.1]oct-8-yl)-1,3,5-triazin-2-yl]phenyl}-3-pyridin-4-ylurea] | 95 | 28 | 41 | 0.49 nM and 0.48 nM | 9 |  | 41 |  |  |  |  | 89 | 8
11 | O=C(Nc1ccc(C(=O)O)cc1)Nc1ccc(-c2nc(-c3cccs3)nc(N3CCOCC3)n2)cc1 [Example 558, 4-[({4-[4-morpholin-4-yl-6-(2-thienyl)-1,3,5-triazin-2-yl]phenyl}carbamoyl)amino]benzoic acid] | 41 |  |  | 6.1 nM | 17 | 751 | 939 |  |  |  |  |  | 
12 | C[C@H]1COCCN1c1nc(-c2ccc(NC(=O)Nc3ccc(C(=O)N4CCC(N(C)C)CC4)cc3)cc2)nc(N2CCOC[C@@H]2C)n1 [Example 616, 1-(4-{4,6-bis[(3S)-3-methylmorpholin-4-yl]-1,3,5-triazin-2-yl}phenyl)-3-(4-{[4-(dimethylamino)piperidin-1-yl]carbonyl}phenyl)urea] | 58.5 |  |  | 1 nM | 4 |  | 21 | 4 |  |  |  |  | 

The remaining compounds from weak to strong by IC50 (PI3K-γ), led by results:

Row | IC50 (PI3K-γ) [nM] | IC50 [1, 3] [nM] | IC50 ([2]; MTS cell growth assay) [nM] | IC50 (Human mTOR (FLAG-TOR)) | IC50 (PI3K-α) [nM] | IC50 [1, 4] [nM] | IC50 [2, 5] [nM] | IC50 [1, 6] [nM] | IC50 (PI3K-α; listed as 527) [nM] | SMILES | IC50 ([1]; 72 h, MDA-MB-361 cells, MTS) [nM] | IC50 ([2]; PC3-mm2 cells, MTS) [nM] | IC50 (PI3K-γ; listed as 669) [nM] | IC50 (PI3K-α; listed as 669) [nM]
13 | 152 |  |  | 13 nM | 18.5 | 194 | 581 |  |  | COCCNC(=O)c1ccc(NC(=O)Nc2ccc(-c3nc(N4CCCCC4)nc(N4CCOCC4)n3)cc2)cc1 [Example 611, N-(2-methoxyethyl)-4-({[4-(4-morpholin-4-yl-6-piperidin-1-yl-1,3,5-triazin-2-yl)phenyl]carbamoyl}amino)benzamide] |  |  |  | 
14 | 107 |  |  | 5 nM | 9 | 52 | 298 |  |  | CN(C)CCNC(=O)c1ccc(NC(=O)Nc2ccc(-c3nc(N4CCCC4)nc(N4CCOCC4)n3)cc2)cc1 [Example 608, N-[2-(dimethylamino)ethyl]-4-({[4-(4-morpholin-4-yl-6-pyrrolidin-1-yl-1,3,5-triazin-2-yl)phenyl]carbamoyl}amino)benzamide] |  |  |  | 
15 | 92 | 129 | 246 | 1.75 nM | 22 |  |  |  |  | CC(C)(C)OC(=O)N1CC(Nc2nc(-c3ccc(NC(=O)Nc4ccncc4)cc3)nc(N3CCOCC3)n2)C1 [Example 21, tert-butyl 3-[(4-morpholin-4-yl-6-{4-[(pyridine-4-ylcarbamoyl)amino]phenyl}-1,3,5-triazin-2-yl)amino]azetidine-1-carboxylate] |  |  |  | 
16 | 67 |  |  | 21.5 nM | 8 | 281 | 569 |  |  | Cc1ccc(-c2nc(-c3ccc(NC(=O)Nc4ccc(C(=O)NCCN(C)C)cc4)cc3)nc(N3CCOCC3)n2)cc1 [Example 542, N-[2-(dimethylamino)ethyl]-4-[({4-[4-(4-methylphenyl)-6-morpholin-4-yl-1,3,5-triazin-2-yl]phenyl}carbamoyl)amino]benzamide] |  |  |  | 
17 | 51 | 104 | 147 | 2.05 nM | 18 |  |  |  |  | O=C(Nc1ccccc1)Nc1ccc(-c2nc(N3CCOCC3)nc(N3CC4CCC(C3)O4)n2)cc1 [Example 23, 1-{4-[4-morpholin-4-yl-6-(8-oxa-3-azabicyclo[3.2.1]oct-3-yl)-1,3,5-triazin-2-yl]phenyl}-3-phenylurea] |  |  |  | 
18 | 38 | 56 | 56 | 3.5 nM | 5 |  |  |  |  | O=C(Nc1ccncc1)Nc1ccc(-c2nc(C3=CCOCC3)nc(N3CCOCC3)n2)cc1 [Example 100, 1-{4-[4-(3,6-Dihydro-2H-pyran-4-yl)-6-morpholin-4-yl-[1,3,5]triazin-2-yl]-phenyl}-3-pyridin-4-yl-urea] |  |  |  | 
19 | 31 | 30 | 47 | 1.6 nM | 10 |  |  |  |  | C[C@H]1COCCN1c1nc(-c2ccc(NC(=O)Nc3ccncc3)cc2)nc(N2CCOCC2)n1 [Example 89, 1-(4-{4-[(3S)-3-methylmorpholin-4-yl]-6-morpholin-4-yl-1,3,5-triazin-2-yl}phenyl)-3-pyridin-4-ylurea] |  |  |  | 
20 | 24 | 11 | 49 | 7 nM | 2 |  |  |  |  | CCc1nc(-c2ccc(NC(=O)Nc3ccc(C(=O)N(C)CCN(C)C)cc3)cc2)nc(N2CCOCC2)n1 [Example 242, N-[2-(dimethylamino)ethyl]-4-({[4-(4-ethyl-6-morpholin-4-yl-1,3,5-triazin-2-yl)phenyl]carbamoyl}amino)-N-methylbenzamide] |  |  |  | 
21 | 6.5 |  |  | 0.69 nM | < 1.75 | < 31 | 41 |  |  | O=C(NCCN1CCCCC1)Nc1ccc(NC(=O)Nc2ccc(-c3nc(N4CCOCC4)nc(N4CCOCC4)n3)cc2)cc1 [Example 501, 1-[4-(4,6-dimorpholin-4-yl-1,3,5-triazin-2-yl)phenyl]-3-(4-{[(2-piperidin-1-ylethyl)carbamoyl]amino}phenyl)urea] |  |  |  | 
